Reference: PubChem BioAssay AID1259407 (Chemical Carcinogenesis Research Information System (CCRIS), 2018)
Calls of active or inactive are those of the source. No rule for the calls is given here.

Test system: CCRIS mutagenicity, Ames/micronucleus/aberration tests
Test: CCRIS mutagenicity studies

Nc1ccc(-c2ccc(N)cc2)cc1
mutagenic call (Test System: AMES SALMONELLA TYPHIMURIUM, Strain/Indicator: TA100, Metabolic Activation: RAT, BLADDER, S-9, PCB, Method: FLUCTUATION TEST): active; positive
mutagenic call (Test System: AMES SALMONELLA TYPHIMURIUM, Strain/Indicator: TA100, Metabolic Activation: S-9, Method: STANDARD PLATE): inactive; negative
mutagenic call (Test System: AMES SALMONELLA TYPHIMURIUM, Strain/Indicator: TA100, Metabolic Activation: TOBACCO CELL-FREE TXIMX, Method: PREINCUBATION): inactive; negative
mutagenic call (Test System: AMES SALMONELLA TYPHIMURIUM, Strain/Indicator: TA1538, Metabolic Activation: GUINEA PIG, LIVER, INTACT HEPATOCYTES, Method: PREINCUBATION): active; positive
mutagenic call (Test System: AMES SALMONELLA TYPHIMURIUM, Strain/Indicator: TA1538, Metabolic Activation: GUINEA PIG, LIVER, S-9, ACETYL COENZYME A, Method: PREINCUBATION): active; positive
mutagenic call (Test System: AMES SALMONELLA TYPHIMURIUM, Strain/Indicator: TA1538, Metabolic Activation: GUINEA PIG, LIVER, S-9, Method: PREINCUBATION): active; positive
mutagenic call (Test System: AMES SALMONELLA TYPHIMURIUM, Strain/Indicator: TA1538, Metabolic Activation: HAMSTER, LIVER, INTACT HEPATOCYTES, Method: PREINCUBATION): active; positive
mutagenic call (Test System: AMES SALMONELLA TYPHIMURIUM, Strain/Indicator: TA1538, Metabolic Activation: HAMSTER, LIVER, S-9, ACETYL COENZYME A, Method: PREINCUBATION): active; positive
mutagenic call (Test System: AMES SALMONELLA TYPHIMURIUM, Strain/Indicator: TA1538, Metabolic Activation: HAMSTER, LIVER, S-9, Method: PREINCUBATION): active; positive
mutagenic call (Test System: AMES SALMONELLA TYPHIMURIUM, Strain/Indicator: TA1538, Metabolic Activation: HAMSTER, LIVER, S-9, Method: STANDARD PLATE): active; positive
mutagenic call (Test System: AMES SALMONELLA TYPHIMURIUM, Strain/Indicator: TA1538, Metabolic Activation: RAT, LIVER, INTACT HEPATOCYTES, Method: PREINCUBATION): active; positive
mutagenic call (Test System: AMES SALMONELLA TYPHIMURIUM, Strain/Indicator: TA1538, Metabolic Activation: RAT, LIVER, S-9, ACETYL COENZYME A, Method: PREINCUBATION): active; positive
mutagenic call (Test System: AMES SALMONELLA TYPHIMURIUM, Strain/Indicator: TA1538, Metabolic Activation: RAT, LIVER, S-9, AROCLOR 1254, Method: STANDARD PLATE): active; positive
mutagenic call (Test System: AMES SALMONELLA TYPHIMURIUM, Strain/Indicator: TA1538, Metabolic Activation: RAT, LIVER, S-9, PHENOBARBITAL, Method: STANDARD PLATE): active; positive
mutagenic call (Test System: AMES SALMONELLA TYPHIMURIUM, Strain/Indicator: TA1538, Metabolic Activation: RAT, LIVER, S-9, Method: PREINCUBATION): active; positive
mutagenic call (Test System: AMES SALMONELLA TYPHIMURIUM, Strain/Indicator: YG1021, Metabolic Activation: TOBACCO CELL-FREE TXIMX, Method: PREINCUBATION): active; positive
mutagenic call (Test System: AMES SALMONELLA TYPHIMURIUM, Strain/Indicator: YG1021, Metabolic Activation: TOBACCO TX1 CELLS, Method: PREINCUBATION): active; positive
mutagenic call (Test System: AMES SALMONELLA TYPHIMURIUM, Strain/Indicator: YG1024, Metabolic Activation: HUMAN, HEPATOMA CELLS, BENZO[A]ANTHRACENE, Method: PREINCUBATION): active; positive
mutagenic call (Test System: AMES SALMONELLA TYPHIMURIUM, Strain/Indicator: YG1024, Metabolic Activation: HUMAN, HEPATOMA CELLS, Method: PREINCUBATION): active; positive
mutagenic call (Test System: AMES SALMONELLA TYPHIMURIUM, Strain/Indicator: YG1024, Metabolic Activation: PLANT CELLS, Method: PREINCUBATION): active; positive
mutagenic call (Test System: AMES SALMONELLA TYPHIMURIUM, Strain/Indicator: YG1024, Metabolic Activation: RAT, LIVER, S-9, AROCLOR 1254, Method: PREINCUBATION): active; positive
mutagenic call (Test System: AMES SALMONELLA TYPHIMURIUM, Strain/Indicator: YG1024, Metabolic Activation: RAT, LIVER, S-9, Method: PREINCUBATION): active; positive
mutagenic call (Test System: AMES SALMONELLA TYPHIMURIUM, Strain/Indicator: YG1024, Metabolic Activation: TOBACCO CELL-FREE EXTRACT, Method: PREINCUBATION): active; positive
mutagenic call (Test System: AMES SALMONELLA TYPHIMURIUM, Strain/Indicator: YG1024, Metabolic Activation: TOBACCO CELL-FREE TXIMX, Method: PREINCUBATION): active; positive
mutagenic call (Test System: AMES SALMONELLA TYPHIMURIUM, Strain/Indicator: YG1024, Metabolic Activation: TOBACCO TX1 CELLS, Method: PREINCUBATION): active; positive
mutagenic call (Test System: AMES SALMONELLA TYPHIMURIUM, Strain/Indicator: YG1026, Metabolic Activation: TOBACCO CELL-FREE TXIMX, Method: PREINCUBATION): inactive; negative
mutagenic call (Test System: AMES SALMONELLA TYPHIMURIUM, Strain/Indicator: YG1026, Metabolic Activation: TOBACCO TX1 CELLS, Method: PREINCUBATION): inactive; negative
mutagenic call (Test System: AMES SALMONELLA TYPHIMURIUM, Strain/Indicator: YG1029, Metabolic Activation: TOBACCO CELL-FREE TXIMX, Method: PREINCUBATION): active; positive
mutagenic call (Test System: AMES SALMONELLA TYPHIMURIUM, Strain/Indicator: YG1029, Metabolic Activation: TOBACCO TX1 CELLS, Method: PREINCUBATION): active; positive
mutagenic call (Test System: Ames Salmonella typhimurium, Strain/Indicator: TA98, Metabolic Activation: Rat, Liver, S-9, Sodium phenobarbitone, Method: Preincubation): active; positive, test conducted under both aerobic and anaerobic conditions.
mutagenic call (Test System: Ames Salmonella typhimurium, Strain/Indicator: TA102, Metabolic Activation: None, Method: Preincubation): inactive; negative
mutagenic call (Test System: Ames Salmonella typhimurium, Strain/Indicator: TA102, Metabolic Activation: Rat, Liver, S-9, Aroclor 1254 in 0.154 M KCl, Method: Preincubation): active; positive (coumestrol, ellagic acid, (-) epicatechin, (-) epichatechingallate, ga
mutagenic call (Test System: Ames Salmonella typhimurium, Strain/Indicator: TA102, Metabolic Activation: Rat, liver, S-9, Aroclor 1254, 4%, Method: Preincubation): active; positive
mutagenic call (Test System: Ames Salmonella typhimurium, Strain/Indicator: TA1538, Metabolic Activation: Rat, Liver, S-9, Sodium phenobarbitone, Method: Preincubation): active; positive, test conducted under both aerobic and anaerobic conditions.
mutagenic call (Test System: CHINESE HAMSTER OVARY, Strain/Indicator: CHO-K1-BH4 (HGPRT)/6-THIOGUANINE, Metabolic Activation: RAT, LIVER, S-9, Method: SUSPENSION/PLATE): inactive; negative
mutagenic call (Test System: CHINESE HAMSTER OVARY, Strain/Indicator: CHO-K1-BH4 (HGPRT), Metabolic Activation: RAT, LIVER, S-9, AROCLOR, Method: SUSPENSION/PLATE): active; positive
mutagenic call (Test System: CHINESE HAMSTER V-79, Strain/Indicator: V-79/6-THIOGUANINE, Metabolic Activation: MOUSE, LIVER, S-9, Method: SUSPENSION/PLATE): active; positive
mutagenic call (Test System: CHINESE HAMSTER V-79, Strain/Indicator: V-79/6-THIOGUANINE, Metabolic Activation: NONE, Method: SUSPENSION/PLATE): inactive; negative
mutagenic call (Test System: CHINESE HAMSTER V-79, Strain/Indicator: V-79/6-THIOGUANINE, Metabolic Activation: RAT, LIVER, S-9, AROCLOR 1254, Method: SUSPENSION/PLATE): inactive; negative
mutagenic call (Test System: CHINESE HAMSTER V-79, Strain/Indicator: V-79/6-THIOGUANINE, Metabolic Activation: RAT, LIVER, S-9, PHENOBARBITAL AND BETA-NAPHTHOFLAVONE, Method: SUSPENSION/PLATE): inactive; negative
mutagenic call (Test System: MOUSE LYMPHOMA, Strain/Indicator: L5178Y (HGPRT)/6-THIOGUANINE, Metabolic Activation: NONE, Method: SUSPENSION/PLATE): inactive; negative
mutagenic call (Test System: MOUSE LYMPHOMA, Strain/Indicator: L5178Y (HGPRT)/6-THIOGUANINE, Metabolic Activation: RAT, LIVER, S-9, AROCLOR 1254, Method: SUSPENSION/PLATE): inactive; negative
mutagenic call (Test System: MOUSE LYMPHOMA, Strain/Indicator: L5178Y (HPRT), Metabolic Activation: NONE, Method: SUSPENSION/PLATE): inactive; negative
mutagenic call (Test System: MOUSE LYMPHOMA, Strain/Indicator: L5178Y (TK+/TK-)/TRIFLUOROTHYMIDINE, Metabolic Activation: NONE, Method: SUSPENSION/PLATE): active; positive
mutagenic call (Test System: MOUSE LYMPHOMA, Strain/Indicator: L5178Y (TK+/TK-)/TRIFLUOROTHYMIDINE, Metabolic Activation: RAT, LIVER, S-9, AROCLOR 1254, Method: SUSPENSION/PLATE): active; positive
mutagenic call (Test System: MOUSE LYMPHOMA, Strain/Indicator: L5178Y (TK+/TK-), Metabolic Activation: NONE, Method: SUSPENSION/PLATE): active; positive
mutagenic call (Test System: MOUSE LYMPHOMA, Strain/Indicator: L5178Y (TK+/TK-), Metabolic Activation: RAT, LIVER, S-9, AROCLOR 1254, Method: SUSPENSION/PLATE): active; positive
mutagenic call (Test System: MOUSE LYMPHOMA, Strain/Indicator: L5178Y (TK+/TK-), Metabolic Activation: S-9, Method: SUSPENSION/PLATE): active; positive
mutagenic call (Test System: UDS RODENT HEPATOCYTES, Strain/Indicator: THY INCORP (NON-S-PHASE), Method: AUTORADIOGRAPHY): active; positive
